From patent US6566096B2, “Mammalian EDG-7 receptor homologs” (NPS Allelix Corp., priority 1997, dated 2003)
“And” between values parts separate entries of the source, which are not always exact repeats. Equal entries are not always repeated.

Target: T1, HEDG-7 receptor (Homo sapiens, UniProt O95977, A140V/I378S)
T1 construct: it was desirable to isolate a full-length cDNA clone from a human source; expressed in transfected cells; host or cells: 293-EBNA cells (Invitrogen, Cat. R620-07), transiently transfected with pc3-hedg7#M10 (pcDNA3.1) and a 2x SRE-luciferase reporter
T1 sequence (O95977 1-384 A140V/I378S): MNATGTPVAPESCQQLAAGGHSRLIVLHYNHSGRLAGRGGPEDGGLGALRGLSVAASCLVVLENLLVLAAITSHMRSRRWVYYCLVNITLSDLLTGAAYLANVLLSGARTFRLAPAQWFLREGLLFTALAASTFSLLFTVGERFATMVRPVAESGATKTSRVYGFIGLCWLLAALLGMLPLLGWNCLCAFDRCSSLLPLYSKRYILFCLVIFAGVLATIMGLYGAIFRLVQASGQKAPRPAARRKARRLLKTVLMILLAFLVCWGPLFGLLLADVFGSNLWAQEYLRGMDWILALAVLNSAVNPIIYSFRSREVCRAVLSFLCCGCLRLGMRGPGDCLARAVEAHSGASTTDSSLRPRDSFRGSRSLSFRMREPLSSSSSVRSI
Test: SRE-luciferase reporter gene response in 293-EBNA cells transfected with pc3-hedg7#M10
Assay type: cell-based
Conditions: for Max. Fold: maximal luciferase fold response after subtracting endogenous response in pcDNA3-transfected cells; for Max. Fold / EMax (Percent) / HEDG7 activation (conclusion from dose response): 6 hr treatment; for EMax (Percent): relative efficacy; for EMax (Percent) / HEDG7 activation (conclusion from dose response) / SRE response (agonist specificity) / Rank (EMax): 293-EBNA cells transfected with pc3-hedg7#M10; for HEDG-7 agonist activity: summary statement in the description; for HEDG7 activation (conclusion from dose response): various concentrations; for SRE response (agonist specificity): 5 μM compound, serum-free medium; for Rank (EMax): rank of efficacy among sphingolipids tested
Method: Miniprep DNA from 4 clones was tested by cotransfection into 293-EBNA cells (Invitrogen, Cat. R620-07) with a 2× SRE-Luciferase reporter gene constructed in-house. We previously determined that these cells are an ideal expression host for edg receptors that respond to sphingolipids, since only a single edg gene is expressed (the LPA receptor subtype […], see U.S. Ser. No. 08/997,803), under normal culture conditions. […] Thus, the low endogenous expression of previously identified S1P receptor subtypes (edg-1, edg-3, edg-4/H218) and hedg7 (determined here) permits overexpression and functional analysis of these receptors in a relatively unresponsive cell background. From this preliminary cotransfection experiment, the expression clone pC3-hEdg7#M10 was chosen for further analysis. The nucleotide sequence and amino acid sequence of the hedg-7 sequence from the pC3-hEdg7#M10 clone are shown in FIG. 1B and FIG. 2B, respectively. Furthermore, an alignment of the hedg-7 amino acid sequence from the pC3-hEdg7#M10 clone and from the genomic DNA sequence is shown in FIG. 3B.
Transient transfection protocol for 293-EBNA:
1) 100 mm plates of 293-EBNA with a confluency of −80% were used for transfection.
2) SRE Reporter Gene Cotransfection: Expression plasmid ([…]) and reporter plasmid (2× SREtk-p4Luc-zeo; 0.5 μg) DNA samples were combined and diluted in 750 μl of DMEM/F12 (serum-free media) and 20 μl Plus Reagent (Lipofectamine Plus Kit, Life Technologies Cat. 10964-013), and incubated at room temperature for 15 min.
3) 30 μl Lipofectamine Reagent (Lipofectamine Plus Kit) was diluted in 750 μl DMEM/F12. The diluted Lipofectamine was then combined with the DNA/Plus mixture and incubated at RT for 15 min.
4) The 293-EBNA plates were washed once with PBS, and 5 ml DMEM/F12 was added to each plate.
5) DNA/Plus/Lipofectamine mixture was added to each plate of 293-EBNA cells. The plates were left for 3 hr at 37° C. in a 5% CO2 incubator.
6) The transfection medium was replaced with DMEM/F12 containing 10% FBS to recover overnight.
2) Transfected cells were harvested by trypsinization and 20,000 cells per well were plated in 96-well Blackview plates coated with poly D-lysine (Becton Dickinson Labware, Cat. 40640). Medium was DMEM/F12 plus 0.15% FBS. No. cells were plated in the outside wells of the 96-well plate. Cells were returned to the incubator for 48 hr.
1) Media was removed and cells treated with compounds diluted in serum-free DMEM/F12 media and the following treatments: a) Untreated: Serum-free DMEM/F12; b) 10 μM S1P in DMEM/F12 medium.
2) The cells were treated 5 hr in the 37° C. incubator.
3) Luclite kit (Packard; Cat. 6016911) was used for luciferase assay. All reagents were brought to room temperature before use.
4) Media was removed from each well. 50 μl 0.5M HEPES pH 7.8, 1 mM MgCl2, 1 mM CaCl2 was added to all wells of 96-well plate.
5) Luclite substrate was made up and 50 μl substrate was added to each well as specified in the kit.
6) Plates were incubated at room temperature for 30 min.
7) After incubation, plates were counted in a 12-detector Packard Top Count on a program without dark delay.
To determine the agonist specificity of HEDG-7, 293-EBNA cells were transfected with pc3-hedg7#M10, serum-deprived as described above, and treated in serum-free medium with 5 μM concentrations of SPC, S1P, LPA, lysophosphatiylcholine (LPC), edelfosine, psychosine, anandamide or 2-arachidonylglycerol. Control cells were treated with serum-free medium alone, and the SRE response was expressed as fold induction relative to this control. After 5 hr of treatment, luciferase activity was measured.
Transfection of a HEDG7 expression vector pc3-hedg7#M10 was carried out using Lipofectamine Plus (Life Technologies, Cat. 10964-013) according to manufacturer's instructions. The next day, transfected cells were harvested by trypsinization and replated at 30,000 cells per well in poly-(D)lysine-coated 96-well plates in medium containing 0.15% FBS. […]

Row | Compound | Max. Fold [Fold] | EMax (Percent) [%] | HEDG-7 agonist activity | HEDG7 activation (conclusion from dose response) | SRE response (agonist specificity) (5 hr) | SRE-Luciferase reporter response (10 μM S1P treatment, 5 hr, EBNA-293 cells transfected with pc3-hedg7#M10 and 2× SRE-Luciferase reporter, 2 independent experiments) | Rank (EMax)
1 | CCCCCCCCCCCCC/C=C/[C@@H](O)C(N)CO[C@@H]1O[C@H](CO)[C@@H](O)[C@H](O)[C@@H]1O (stereo partly drawn) [Glucospychosine, glucopsychosine] | 1.00 | 0 | do not act as HEDG-7 agonists | failed to activate HEDG7 at nontoxic concentrations | – | – | –
2 | CCCCCCCCCCCCC/C=C/[C@@H](O)[C@@H](N)CO[C@@H]1O[C@H](CO)[C@H](O)[C@H](O)[C@H]1O [Psychosine, psychosine] | 1.00 | 0 | do not act as HEDG-7 agonists | failed to activate HEDG7 at nontoxic concentrations | – | – | –
3 | CCCCCCCCCCCCC/C=C/[C@@H](O)[C@@H](N)COP(=O)(O)O [S1P] | 3.59 | 100 | agonists for HEDG-7 | full agonists | robustly induced expression of the SRE reporter gene | 5.3 fold and 6.5 fold | 1
4 | CCCCCCCCCCCCC/C=C/[C@@H](O)[C@@H](N)COP(=O)([O-])OCC[N+](C)(C)C [SPC] | 3.59 | 100 | agonists for HEDG-7 | full agonists | robustly induced expression of the SRE reporter gene | – | 1
5 | CCCCC/C=C\C/C=C\C/C=C\C/C=C\CCCC(=O)NCCO [anadamide, anandamide] | – | – | do not act as HEDG-7 agonists | – | – | – | –
6 | CCCCCCCCCCCCCCC[C@@H](O)[C@@H](N)COP(=O)(O)O [dihydro-S1P, dihydrosphingosine 1-phosphate] | – | – | do not act as HEDG-7 agonists | – | – | – | –
7 | lysophosphatidylcholine [LPC] | – | – | – | – | failed to activate the SRE response | – | –
